From patent US20060019400A1, “Method for the determination of glucuronides in physiological samples” (University of Maryland, priority 2004, published 2006)

Experiments:
[1] = Ethyl glucuronide levels in postmortem urine by SPE and HPLC-PED; design: species or system human; details: in vivo
Protocol: A ternary gradient solvent delivery pump 106 (Model 8800; Spectra Physics, Mountain View, Calif.) equipped with mixing chamber 104 and on-line degasser unit 102 (Model KT-35M; Shodex, Clear Brook, Va.) were used to provide solvent delivery to analytical column 110. In certain embodiments, isocratic separations are performed using a 1% acetic acid/water:acetonitrile (98:2, v/v) mobile phase set to a flow rate of 1.0 mL ? min-1. Injection valve 108 (Model 7010; Rheodyne, Rohnert Park, Calif.) is fitted with a 50 μL injection loop. Separations can be performed using any suitable analytical column, selected based upon the glucuronide(s) of interest. For example, a reversed-phase (C18; 250×4.6 mm, 5 μm, 100 Å) Denali column (Vydac, Columbia, Md.) with guard column (C18; 7.5×4.6 mm, 5 μm; Vydac) can be used, or a bonded-phase silica column comprising a C18 functional group bonded to its surface using a sulfonamide group coupled to an ether linkage (DIONEX® PA column, DIONEX®, Sunnyvale, Calif.) can be used. Post-column addition of NaOH 112 (for example, 600 mM NaOH), necessary to promote PED-activity, was accomplished by a reagent delivery module (RDM, Dionex, Sunnyvale, Calif.). […]
All urine samples (1.0 mL) were pretreated with 100 μL of 3 M HCl and 3 mL acetonitrile. […] The reconstituted solution was diluted further to bring EtG within the linear range of quantitation. […]

[2] = after alcohol consumption; cited from earlier work

For `CCO[C@@H]1O[C@H](C(=O)O)[C@@H](O)[C@H](O)[C@H]1O` [EtG, Ethyl glucuronide], which “EtG levels in postmortem samples” value [1] is on record?
The value was 3 to 700 µg/mL.

And the “period of detection after the complete elimination of alcohol from the body” value [2]?
Its value is “up to 80 h”.
